Where a name gives a salt, the structure may show the parent alone.
How the values were obtained:
[1] = biological target: T1, IKKε (Homo sapiens, UniProt Q14164); experiment: IKKe Biochemical Assay; settings: read-out: IKKε IC50
T1 sequence (Q14164 1-716): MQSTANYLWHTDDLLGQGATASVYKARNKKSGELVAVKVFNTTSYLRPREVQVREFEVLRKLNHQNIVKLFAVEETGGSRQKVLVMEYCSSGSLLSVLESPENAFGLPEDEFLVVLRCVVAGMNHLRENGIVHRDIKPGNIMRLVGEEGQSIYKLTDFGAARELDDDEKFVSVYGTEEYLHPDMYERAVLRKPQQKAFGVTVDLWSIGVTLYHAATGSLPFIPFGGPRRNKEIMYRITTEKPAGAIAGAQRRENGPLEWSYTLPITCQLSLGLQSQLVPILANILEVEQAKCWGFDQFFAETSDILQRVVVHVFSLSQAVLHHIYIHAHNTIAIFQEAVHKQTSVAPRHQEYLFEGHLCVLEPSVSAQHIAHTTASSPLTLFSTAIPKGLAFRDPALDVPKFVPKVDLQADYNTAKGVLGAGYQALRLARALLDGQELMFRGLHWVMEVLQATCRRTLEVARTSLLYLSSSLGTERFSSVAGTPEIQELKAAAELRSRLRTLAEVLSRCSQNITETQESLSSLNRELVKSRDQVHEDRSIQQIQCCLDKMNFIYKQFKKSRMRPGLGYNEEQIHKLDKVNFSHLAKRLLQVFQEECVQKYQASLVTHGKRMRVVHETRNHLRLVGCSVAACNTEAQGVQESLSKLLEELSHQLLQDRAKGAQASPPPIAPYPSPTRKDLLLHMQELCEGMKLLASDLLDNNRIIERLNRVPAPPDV
Description: Test compounds were transferred into Labcyte polypropylene 384 well plates (P055-25) and diluted to 3 mM using DMSO. 3 mM test compounds were dispensed using Labcyte ECHO dose response module into (Greiner 784075 plates (columns 3-12 and 13-22, 10 point 1:4) so that high concentration was 30 uM final. 100 uM of a reference compound (1 uM final high concentration). Backfilling was performed if necessary so that all wells contain 1% DMSO final: […]
add 75 nl DMSO/well into columns 1, 2 and 24 using Labcyte Echo. add 75 nl 1.0 mM staurosporine/well into column 23 using Labcyte Echo (10 uM final) add 4.5 ul enzyme/well using multidrop dispenser add 3 ul substrate/well using multidrop dispenser incubate at 25° C. for 90 min. add 7.5 ul 2× stop buffer read on labchip ez reader II using IKKε. job
Raw data files were opened in the Caliper LabChip Reviewer program (Version 3.0.265.0 SP2) and peak assignments were adjusted to reflect “substrate first” with the software's post-run analysis options. A spline-fit baseline was applied using the software's analysis algorithm.

[2] = biological target: T2, TBK1 (Homo sapiens, UniProt Q9UHD2); experiment: TBK Biochemical Assay; settings: read-out: TBK1 IC50
T2 sequence (Q9UHD2 1-729): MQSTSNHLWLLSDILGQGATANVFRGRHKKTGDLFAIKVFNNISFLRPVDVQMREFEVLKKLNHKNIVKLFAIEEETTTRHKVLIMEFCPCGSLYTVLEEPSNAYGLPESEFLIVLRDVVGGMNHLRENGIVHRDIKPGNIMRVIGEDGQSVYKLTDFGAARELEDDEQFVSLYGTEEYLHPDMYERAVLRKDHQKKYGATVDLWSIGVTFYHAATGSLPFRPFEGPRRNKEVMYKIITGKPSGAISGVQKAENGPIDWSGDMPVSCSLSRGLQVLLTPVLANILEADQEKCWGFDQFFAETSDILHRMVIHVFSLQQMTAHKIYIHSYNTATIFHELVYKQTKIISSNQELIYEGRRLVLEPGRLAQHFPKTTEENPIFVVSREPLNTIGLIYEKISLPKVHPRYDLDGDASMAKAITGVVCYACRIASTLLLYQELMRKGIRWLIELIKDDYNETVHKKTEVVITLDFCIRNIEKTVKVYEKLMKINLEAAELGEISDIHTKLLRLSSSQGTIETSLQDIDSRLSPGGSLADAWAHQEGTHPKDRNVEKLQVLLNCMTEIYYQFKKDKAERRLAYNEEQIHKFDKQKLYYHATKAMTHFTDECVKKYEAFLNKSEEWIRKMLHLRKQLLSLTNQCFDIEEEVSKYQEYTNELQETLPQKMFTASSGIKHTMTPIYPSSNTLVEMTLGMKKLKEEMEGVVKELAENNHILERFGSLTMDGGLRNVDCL
In short: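 TBK1 enzyme and substrate incubated with compounds (10-point 1:4 dilution, top 30 uM final, 1% DMSO) for 90 min at 25° C, then stopped. Substrate/product peaks read by microfluidic mobility-shift (Caliper LabChip); 10 uM staurosporine as full-inhibition control.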

| SMILES | IC50 [1] | IC50 [2] |
| --- | --- | --- |
| COc1cc(C(=O)N2C3CCC2COC3)ccc1-c1cc2nccc(-c3ccc(NC4CCOCC4)c(C#N)c3)c2o1 [Compound 94, 5-{2-[2-Methoxy-4-(3-oxa-8-aza-bicyclo[3.2.1]octane-8-carbonyl)-phenyl]-furo[3,2-b]pyridin-7-yl}-2-(tetrahydro-pyran-4-ylamino)-benzonitrile] | < 100 nM | < 100 nM |
| N#Cc1cc(-c2ccnc3cc(-c4ccc(C(=O)O)cc4)oc23)ccc1N1CC[C@H](F)C1 [Compound 107, 4-{7-[3-Cyano-4-((S)-3-fluoro-pyrrolidin-1-yl)-phenyl]-furo[3,2-b]pyridin-2-yl}-benzoic acid] | < 100 nM | < 100 nM |
| COc1cc(C(=O)N(C)C)ccc1-c1cc2nccc(-c3ccc(OC4(C(F)(F)F)CCNC4)c(C#N)c3)c2o1 (stereo not shown) [Compound 113, 4-{7-[3-Cyano-4-(3-trifluoromethyl-pyrrolidin-3-yloxy)-phenyl]-furo[3,2-b]pyridin-2-yl}-3-methoxy-N,N-dimethyl-benzamide] | < 100 nM | < 100 nM |
| COc1cc(C(=O)N2CCC3(CCC3)C2)ccc1-c1cc2nccc(-c3ccc(OC4CCOCC4)c(C#N)c3)c2o1 [Compound 114, 5-{2-[4-(6-Aza-spiro[3.4]octane-6-carbonyl)-2-methoxy-phenyl]-furo[3,2-b]pyridin-7-yl}-2-(tetrahydro-pyran-4-yloxy)-benzonitrile] | < 100 nM | < 100 nM |
| COc1cc(C(=O)N(C)C)ccc1-c1cc2nccc(-c3ccc(O[C@@H]4CCNC4)c(C#N)c3)c2o1 [Compound 115, 4-{7-[3-Cyano-4-((R)-pyrrolidin-3-yloxy)-phenyl]-furo[3,2-b]pyridin-2-yl}-3-methoxy-N,N-dimethyl-benzamide] | < 100 nM | < 100 nM |
| COc1cc(C(=O)N(C)C)ccc1-c1cc2nccc(-c3ccc(O[C@H]4CCNC4)c(C#N)c3)c2o1 [Compound 121, 4-{7-[3-Cyano-4-((S)-pyrrolidin-3-yloxy)-phenyl]-furo[3,2-b]pyridin-2-yl}-3-methoxy-N,N-dimethyl-benzamide] | < 100 nM | < 100 nM |
| N#Cc1cc(-c2ccnc3cc(-c4ccc(N)cc4)oc23)ccc1OC1CCOCC1 [Compound 126] | < 100 nM | < 100 nM |
| COc1cc(C(=O)N(C)C)ccc1-c1cc2nccc(-c3ccc(OC4CNC4)c(C#N)c3)c2o1 [Compound 128, 4-{7-[4-(Azetidin-3-yloxy)-3-cyano-phenyl]-furo[3,2-b]pyridin-2-yl}-3-methoxy-N,N-dimethyl-benzamide] | < 100 nM | < 100 nM |
| COc1cc(C(=O)NC2CCOCC2F)ccc1-c1cc2nccc(-c3ccc(NC4CCOCC4)c(C#N)c3)c2o1 (stereo not shown) [Compound 132, 4-{7-[3-Cyano-4-(tetrahydro-pyran-4-ylamino)-phenyl]-furo[3,2-b]pyridin-2-yl}-N-(3-fluoro-tetrahydro-pyran-4-yl)-3-methoxy-benzamide] | < 100 nM | < 100 nM |

The next lines start with the values.

| IC50 [1] | IC50 [2] | SMILES |
| --- | --- | --- |
| < 100 nM | < 100 nM | COc1cc(C(=O)NC2CCOCC2)ccc1-c1cc2nccc(-c3ccc(OC4CCOCC4)c(C#N)c3)c2o1 [Compound 83, 4-{7-[3-Cyano-4-(tetrahydro-pyran-4-yloxy)-phenyl]-furo[3,2-b]pyridin-2-yl}-3-methoxy-N-(tetrahydro-pyran-4-yl)-benzamide] |
| < 100 nM | < 100 nM | COc1cc(C(=O)N2CC3CC2CO3)ccc1-c1cc2nccc(-c3ccc(NC4CCOCC4)c(C#N)c3)c2o1 (stereo not shown) [Compound 85, 5-{2-[2-Methoxy-4-(2-oxa-5-aza-bicyclo[2.2.1]heptane-5-carbonyl)-phenyl]-furo[3,2-b]pyridin-7-yl}-2-(tetrahydro-pyran-4-ylamino)-benzonitrile] |
| < 100 nM | < 100 nM | COc1cc(C(=O)NC2(C)CCNC2)ccc1-c1cc2nccc(-c3ccc(OC4CCOCC4)c(C#N)c3)c2o1 (stereo not shown) [Compound 86, 4-{7-[3-Cyano-4-(tetrahydro-pyran-4-yloxy)-phenyl]-furo[3,2-b]pyridin-2-yl}-3-methoxy-N-(3-methyl-pyrrolidin-3-yl)-benzamide hydrochloride] |
| < 100 nM | < 100 nM | COc1cc(C(=O)N2CCCC2C(F)F)ccc1-c1cc2nccc(-c3ccc(OC4CCOCC4)c(C#N)c3)c2o1 (stereo not shown) [Compound 89, 5-{2-[4-(2-Difluoromethyl-pyrrolidine-1-carbonyl)-2-methoxy-phenyl]-furo[3,2-b]pyridin-7-yl}-2-(tetrahydro-pyran-4-yloxy)-benzonitrile] |
| < 100 nM | < 100 nM | COc1cc(C(=O)N2CC[C@@H](O)C2)ccc1-c1cc2nccc(-c3ccc(NC4CCOCC4)c(C#N)c3)c2o1 [Compound 95, 5-{2-[4-((R)-3-Hydroxy-pyrrolidine-1-carbonyl)-2-methoxy-phenyl]-furo[3,2-b]pyridin-7-yl}-2-(tetrahydro-pyran-4-ylamino)-benzonitrile] |
| < 100 nM | < 100 nM | COc1cc(C(=O)N2CC3CCC(O)C3C2)ccc1-c1cc2nccc(-c3ccc(NC4CCOCC4)c(C#N)c3)c2o1 (stereo not shown) [Compound 96] |
| < 100 nM | < 100 nM | COc1cc(C(=O)N(C)C)ccc1-c1cc2nccc(-c3ccc(OC4CCN(C)CC4(F)F)c(C#N)c3)c2o1 (stereo not shown) [Compound 97, 4-{7-[3-Cyano-4-(3,3-difluoro-1-methyl-piperidin-4-yloxy)-phenyl]-furo[3,2-b]pyridin-2-yl}-3-methoxy-N,N-dimethyl-benzamide] |
| < 100 nM | < 100 nM | COc1cc(C(=O)N2CC3CCCC3C2)ccc1-c1cc2nccc(-c3ccc(OC4CCOCC4)c(C#N)c3)c2o1 (stereo not shown) [Compound 99, 5-{2-[4-(Hexahydro-cyclopenta[c]pyrrole-2-carbonyl)-2-methoxy-phenyl]-furo[3,2-b]pyridin-7-yl}-2-(tetrahydro-pyran-4-yloxy)-benzonitrile] |
| < 100 nM | < 100 nM | CNC(=O)c1ccc(-c2cc3nccc(-c4ccc(OC5CCOCC5)c(C#N)c4)c3o2)c(OC)c1 [Compound 100, 4-{7-[3-Cyano-4-(tetrahydro-pyran-4-yloxy)-phenyl]-furo[3,2-b]pyridin-2-yl}-3-methoxy-N-methyl-benzamide] |
| < 100 nM | < 100 nM | COc1cc(C(=O)NC2CCOCC2F)ccc1-c1cc2nccc(-c3ccc(OC4CCOCC4)c(C#N)c3)c2o1 (stereo not shown) [Compound 102, 4-{7-[3-Cyano-4-(tetrahydro-pyran-4-yloxy)-phenyl]-furo[3,2-b]pyridin-2-yl}-N-(3-fluoro-tetrahydro-pyran-4-yl)-3-methoxy-benzamide] |
| < 100 nM | < 100 nM | COc1cc(C(=O)N2CC[C@H](O)C2)ccc1-c1cc2nccc(-c3ccc(NC4CCOCC4)c(C#N)c3)c2o1 [Compound 103, 5-{2-[4-((S)-3-Hydroxy-pyrrolidine-1-carbonyl)-2-methoxy-phenyl]-furo[3,2-b]pyridin-7-yl}-2-(tetrahydro-pyran-4-ylamino)-benzonitrile] |

From US10428080B2, “TBK/IKK inhibitor compounds and uses thereof” (Merck Patent GmbH, priority 2015, dated 2019)
